# Test results taken from US4719214A, “Carbocyclic analogues of thymine nucleosides” (priority 1985, dated 1988).
# “And” between values parts separate entries of the source, which are not always exact repeats. Equal values may be shown once. “Also recorded” adds a separate entry of the source. Read-outs that look alike come from different tables or passages of the source.
# How the values were obtained:
# [1] = system: Herpes Simplex Virus Type 2, Strain MS; experiment: Antiviral activity vs. herpes simplex virus type 2 replicating in Vero cells (virus-induced cytopathogenic effects); type: cell-based; conditions: for antiviral activity vs. HSV-2 (in words): HSV-2, Table 1 summary; for Virus rating (VR): 0.5-0.9 marginal to moderate, >=1 definite antiviral activity; for EC50: Human alphaherpesvirus 2, Vero, read-out: MIC50 (minimum inhibitory concentration, 50%)
# Protocol: (§1) The MIC50 (minimum inhibitory concentration, 50%) is the concentration of a test compound required for 50% inhibition of virus-induced cytopathogenic effects.
# (§2) ^a Antiviral evaluations were performed with HSV1 or HSV2 replicating
# [2] = system: Herpes Simplex Virus Type 1, Strain 377; experiment: Antiviral activity vs. herpes simplex virus type 1 replicating in Vero cells (virus-induced cytopathogenic effects); type: cell-based; conditions: for antiviral activity vs. HSV-1 (in words): HSV-1, Table 1 summary; for Virus rating (VR): 0.5-0.9 marginal to moderate, >=1 definite antiviral activity; for EC50: Human alphaherpesvirus 1, Vero, read-out: MIC50 (minimum inhibitory concentration, 50%)
# Protocol: as §1, §2
# thymidine phosphorylase = conditions: isolated from human blood platelets; cited from earlier work
# [3] = rats; cited from earlier work
# [4] = HSV-2 strain MS, Vero cells, 50% inhibition of virus-induced cytopathogenic effects
# [5] = HSV-1 strain 377, Vero cells, 50% inhibition of virus-induced cytopathogenic effects
# [6] = listed as carbocyclic analogue of 5-ethynyl-2'-deoxyuridine
SMILES,antiviral activity vs. HSV-2 (in words) [1],"Virus rating (VR) ([1]; HSV-2 strain MS, Vero cells)","EC50 [1, 4] [µg/mL]",antiviral activity vs. HSV-1 (in words) [2],"Virus rating (VR) ([2]; HSV-1 strain 377, Vero cells)","EC50 [2, 5] [µg/mL]",EC50 [2] [µg/mL],EC50 [1] [µg/mL],substrate for thymidine phosphorylase (thymidine phosphorylase),also measured
"CCc1cn([C@@H]2C[C@H](CO)[C@@H](O)C2)c(=O)[nH]c1=O (relative stereo) [C-EDU, 5-Ethyl-1-[(1α,3β,4α)-3-Hydroxy-4-(hydroxymethyl)cyclopentyl]-2,4(1H,3H)-pyrimidinedione]",comparable to those of 9-β-D-arabinofuranosyladenine (Ara-A); also recorded: definite and significant activity against HSV-2; also recorded: inhibits the replication,1.1,227,"comparable to those of 9-β-D-arabinofuranosyladenine (Ara-A); also recorded: as active vs. HSV-1 as is the corresponding true nucleoside, 5-ethyl-2'-deoxyuridine (EDU); also recorded: inhibits the replication",2.4 and 2.1,45,–,–,–,"MIC50 (minimum inhibitory concentration, 50%) [1, 4]: 178 µg/mL; MIC50 (minimum inhibitory concentration, 50%) [2, 5]: 69 µg/mL"
"C#Cc1cn([C@@H]2C[C@H](CO)[C@@H](O)C2)c(=O)[nH]c1=O (relative stereo) [Example 4, 1-[(1α,3β,4α)-3-Hydroxy-4-(hydroxymethyl)cyclopentyl]-5-ethynyl-2,4(1H,3H)-pyrimidinedione]",significant antiviral activity,1.1,207,significant antiviral activity,0.9,253,–,–,–,"antiviral activity vs. HSV-2 (in words) [1, 6]: significant, selective activity; antiviral activity vs. HSV-1 (in words) [2, 6]: significant, selective activity"
"C[Si](C)(C)CCc1cn([C@@H]2C[C@H](CO)[C@@H](O)C2)c(=O)[nH]c1=O (relative stereo) [Example 7, 1-[(1α,3β,4α)-3-Hydroxy-4-(hydroxymethyl)cyclopentyl]-5-[2-(trimethylsilyl)ethyl]-2,4(1H,3H)-pyrimidinedione]",–,–,–,antiviral activity,0.5,–,320,–,–,antiviral activity vs. HSV-1 (in words) ([2]; listed as carbocyclic analogue of 5-trimethylsilylethyl-2'-deoxyuridine): activity against HSV-1
"Nc1ncnc2c1ncn2[C@@H]1O[C@H](CO)[C@@H](O)[C@@H]1O [Ara-A, 9-β-D-arabinofuranosyladenine, reference compound]",–,1.3-1.7,–,–,2.0-2.1,–,15 to 19,22 to 45,–,–
"O=c1[nH]c(=O)n([C@H]2C[C@H](O)[C@@H](CO)O2)cc1/C=C/Br [BVDU, 5-[(E)-2-(bromovinyl)]-2'-deoxyuridine]",–,–,–,–,–,–,–,–,substrates for thymidine phosphorylase,–
"CCc1cn([C@H]2C[C@H](O)[C@@H](CO)O2)c(=O)[nH]c1=O [EDU, 5-ethyl-2'-deoxyuridine, reference compound]",–,2.2,–,–,2.3,–,19,321,substrates for thymidine phosphorylase,cleavage products identified as metabolites [3]: 5-ethyluracil and 5-(2-hydroxyethyl)uracil
